Laboratory results taken from patent publication US11407977B2, “Tissue scaffolds for electrically excitable cells” (Innovative Surface Technologies, Inc., priority 2013, dated 2022).

Tested on: bioartificial rat hippocampal brain slice
Assay: Evoked fEPSP field recording on bioartificial tissue scaffold with antagonist cocktail
Type: cell-based
Settings: cocktail in ACSF: CNQX 10 microM, APV 50 microM, Bicuculline Methbromide 50 microM; 10 minute wash-in; 28 d.i.v.; drug-subtracted average fEPSP, FIG. 12
Protocol: Dissociated hippocampal cells were seeded on open-field scaffolds and grown in an incubator as described in Example 9, to generate bioartificial open field hippocampal brain tissue “slices.” FIG. 11 is a photo micrograph of the bioartificial tissue, on its scaffold, in a conventional field recording chamber.
Bioartificial tissue scaffolds were removed from the incubator for electrophysiological testing between 14-90 days in vitro (d.i.v.). For electrophysiological field recordings, bioartificial tissue scaffolds were suspended on a nylon mesh in a small (350-400 μl) recording chamber (FIG. 11) and perfused with artificial cerebrospinal fluid (ACSF) at a rate of 2.5-3 ml/min (submerged mode). The temperature in the recording chamber was held at 30-32° C. Recordings were made using an ACSF-filled glass micropipette (2-4 MΩ) positioned as shown (FIG. 6) and connected via a head stage to the amplifier (A-M Systems model 1800). Signals were digitized at 100 kHz using a Digidata 1550 series interface (Axon instruments) running ClampEx 10.4. Synaptic responses were evoked by electrical stimulation using a bipolar tungsten electrode (tip spacing, 140 micrometers; Frederick Haer Company) and a 100 microsecond square wave test pulse was delivered at intervals of twenty seconds (FIG. 6). Stimulus-response relationship was established over the range of 0-1000 microV. […]

Compound	effect on evoked fEPSP
N[C@@H](CCCP(=O)(O)O)C(=O)O [APV]	sensitivity of the bioartificial rat hippocampal brain slice
N#Cc1cc2[nH]c(=O)c(=O)[nH]c2cc1[N+](=O)[O-] [CNQX]	sensitivity of the bioartificial rat hippocampal brain slice
